# Test results from patent EP2457572A1, “Use of atomic quantum clusters (aqcs) in the prevention of cell proliferative disorders, viral infections and autoimmune diseases” (Universidade De Santiago De Compostela, priority 2010, dated 2012).
# Tested on: HL-60 cells
# Assay: Activated caspase 3 by flow cytometry (PE Active Caspase-3 Apoptosis kit)
# Assay type: cell-based
# Details: camptothecin 30µM, non treated control 7.4 %
# Experimental: HL-60 cells were incubated with the various treatments. […] (It is well known that caspase 3 is the main effector of apoptosis mediated by caspase activation).
smiles,measurement,value
CC[C@@]1(O)C(=O)OCc2c1cc1n(c2=O)Cc2cc3ccccc3nc2-1 [camptothecin],cells positive for activated caspase 3,32.4%
